This is an account of results in US12421208B2, “Chemical compounds” (ASTRAZENECA AB, priority 2020, dated 2025).

pIC50: −log10 of the molar value.

One experiment deals with T1, PARP6 (Homo sapiens, UniProt Q2NL67).
T1 construct: Recombinant full length GST tagged PARP6 protein; GST
Briefly: PARP fluorescence anisotropy binding assay, PARP6. To be noted: recombinant full length GST tagged PARP6. As to the method:
(§1) PARP Fluorescence Anisotropy Binding Assays
Recombinant full length GST tagged PARP6 protein was diluted to 160 nM with 50 mM Tris pH 8, 0.001% Triton X100, 10 mM MgCl2, 150 mM NaCl and incubated for four hours with an equivalent volume of 6 nM fluorescent probe diluted with 50 mM Tris pH 8, 0.001% Triton X100, 10 mM MgCl2, 150 mM NaCl. The final DMSO concentration of the probe was kept below 1% (v/v).
Fluorescence anisotropy of the probe when bound to the proteins was measured using a BMG Pherastar FSX© in the presence of test compounds or solvent control and the effect on anisotropy determined. % inhibition values for different test compound concentrations were calculated and fitted to a four parameter logistic plot in order to determine the IC50 value. Where necessary, the compound Ki can be determined from the IC50 value using a Munson Rodbard equation defined in Anal Biochem. 1980 Sep. 1; 107(1):220-39 and is based on the known KD of the probe binding to the relevant PARP protein
For orientation: Fluorescence polarisation rises when a labelled molecule tumbles more slowly, as on binding a larger partner.

Another experiment concerns the target T2, PARP2 (Homo sapiens, UniProt Q9UGN5).
T2 construct: Recombinant full length PARP2 protein
Briefly: PARP fluorescence anisotropy binding assay, PARP2. To be noted: recombinant full length PARP2. The protocol:
as §1
Recombinant full length PARP2 protein was diluted to 6 nM with 50 mM Tris pH 8, 0.001% Triton X100, 10 mM MgCl2, 150 mM NaCl and incubated for four hours with an equivalent volume of 2 nM fluorescent probe diluted with 50 mM Tris pH 8, 0.001% Triton X100, 10 mM MgCl2, 150 mM NaCl. The final DMSO concentration of the probe was kept below 1% (v/v).
Fluorescence anisotropy of the probe when bound to the proteins was measured using a BMG Pherastar FSX© in the presence of test compounds or solvent control and the effect on anisotropy determined. % inhibition values for different test compound concentrations were calculated and fitted to a four parameter logistic plot in order to determine the IC50 value.

The target in the next experiment is hERG (Homo sapiens, UniProt Q12809). As to the kind of experiment: hERG inhibition. From the text:
It is well known that blockade of the cardiac ion channel coded by human ether-n-gogo-related gene (hERG) is a risk factor in drug discovery and development. Blockage of hERG can cause safety problems such as cardiac arrhythmia. Advantageously, the compounds of Formula I have low hERG activity.
On the technique in general: The hERG channel carries a current that helps repolarise heart muscle cells.

The target in a further experiment is PARP5a (Homo sapiens, UniProt O95271). As to the kind of experiment: PARP fluorescence anisotropy binding assay, PARP5a binding domain. To be noted: recombinant PARP5a binding domain.
Sequence of PARP5a (O95271 1112-1317): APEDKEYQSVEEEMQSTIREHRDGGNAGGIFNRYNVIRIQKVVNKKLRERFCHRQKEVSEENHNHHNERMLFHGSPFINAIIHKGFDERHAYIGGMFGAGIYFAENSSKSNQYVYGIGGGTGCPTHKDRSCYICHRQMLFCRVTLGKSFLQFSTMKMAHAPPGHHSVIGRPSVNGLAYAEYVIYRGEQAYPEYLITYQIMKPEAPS
Source text: as §1

The subject of the next experiment is BRCA2 (−/−) DLD1 cells. As to the kind of experiment: PARP proliferation assay (7 day compound dosing), BRCA2 (−/−) DLD1. The format is cell-based. The following applies: Homo sapiens, DLD-1, 168 h, BRCA2 −/− DLD-1 cells, 7 day dosing; read-out: BRCA2 −/− DLD-1 prolif. 7 d IC50. As to the method: (§2) PARP Proliferation Assay (7 Day Compound Dosing)
(§3) DLD1 and BRCA2 (−/−) DLD1 cells were harvested to a density of 5000 cells/ml and 2.5E4 cells/ml respectively in complete media, 40 μL/well seeded into 384-well plates (Greiner, Kremsmunster, Austria; 781090) using a Multidrop Combi then incubated at 37° C., 5% CO2 overnight. Next day (Day 1) using a Multidrop Combi add sytoxgreen (5 ul, 2 uM) and saponin (10 ul, 0.25% stock) to a day 0 plate, seal the plate using a black adhesive lid and incubate for >3 h at rt. Cells were imaged using Cell Insight (Thermo Fisher) fitted with a 4× objective. Test compounds are added using an Echo 555 and placed in incubator maintained at 37° C., 5% CO2 and incubated for 7 days. On Day 8 add sytox green (5 ul, 2 uM) and then saponin (10 ul, 0.25% stock) to plates, seal the plate using a black adhesive lid and incubate for >3 h at rt. Read all cells on the Cell Insight with 4× Objective. The rate of proliferation is determined in Genedata by assessing the total cell number output from the Cell Insight for Day 0 and Day 8 plates.

For a further experiment, the target named is T3, PARP3 (Homo sapiens, UniProt Q9Y6F1).
T3 construct: Recombinant full length PARP3 protein
T3 sequence (Q9Y6F1 1-533): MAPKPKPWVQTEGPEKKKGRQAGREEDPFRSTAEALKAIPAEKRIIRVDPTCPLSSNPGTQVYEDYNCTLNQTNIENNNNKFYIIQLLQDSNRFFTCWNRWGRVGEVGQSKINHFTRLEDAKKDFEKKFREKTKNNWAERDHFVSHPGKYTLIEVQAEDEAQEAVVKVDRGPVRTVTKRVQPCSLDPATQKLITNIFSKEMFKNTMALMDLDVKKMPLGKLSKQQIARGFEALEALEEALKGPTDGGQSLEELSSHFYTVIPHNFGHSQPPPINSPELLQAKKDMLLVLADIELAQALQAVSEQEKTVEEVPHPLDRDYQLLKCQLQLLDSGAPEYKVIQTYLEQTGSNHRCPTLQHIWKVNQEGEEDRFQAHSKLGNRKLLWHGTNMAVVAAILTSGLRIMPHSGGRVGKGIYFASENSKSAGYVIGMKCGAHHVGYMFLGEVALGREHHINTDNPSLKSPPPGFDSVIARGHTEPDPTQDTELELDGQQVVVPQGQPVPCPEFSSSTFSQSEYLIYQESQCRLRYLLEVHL
Briefly: PARP fluorescence anisotropy binding assay, PARP3. To be noted: recombinant full length PARP3.
Source text: as §1

A further experiment deals with DLD1 cells. As to the kind of experiment: PARP proliferation assay (7 day compound dosing), WT DLD1. The format is cell-based. The following applies: Homo sapiens, 168 h; WT DLD-1 cells, 7 day dosing; read-out: WT DLD-1 prolif. 7 d IC50. The protocol:
as §2, §3

T1 sequence (Q2NL67 whole entry): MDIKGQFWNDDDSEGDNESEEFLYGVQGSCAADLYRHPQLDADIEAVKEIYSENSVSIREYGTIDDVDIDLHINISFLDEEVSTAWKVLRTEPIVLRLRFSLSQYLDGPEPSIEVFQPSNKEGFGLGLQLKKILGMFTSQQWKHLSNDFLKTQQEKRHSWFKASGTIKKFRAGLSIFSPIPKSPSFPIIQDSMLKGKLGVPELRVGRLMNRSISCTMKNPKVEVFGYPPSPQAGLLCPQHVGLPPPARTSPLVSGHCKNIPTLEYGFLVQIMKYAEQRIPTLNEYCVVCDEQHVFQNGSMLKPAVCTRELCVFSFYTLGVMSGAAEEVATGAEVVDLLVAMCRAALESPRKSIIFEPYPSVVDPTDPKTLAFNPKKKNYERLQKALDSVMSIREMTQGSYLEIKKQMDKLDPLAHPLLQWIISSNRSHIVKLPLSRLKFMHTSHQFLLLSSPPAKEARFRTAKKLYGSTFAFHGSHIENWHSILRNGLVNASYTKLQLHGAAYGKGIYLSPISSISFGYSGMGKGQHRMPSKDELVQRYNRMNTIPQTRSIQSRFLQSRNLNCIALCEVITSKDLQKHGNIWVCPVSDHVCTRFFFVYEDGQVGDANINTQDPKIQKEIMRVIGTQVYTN
Sequence of hERG (Q12809 whole entry): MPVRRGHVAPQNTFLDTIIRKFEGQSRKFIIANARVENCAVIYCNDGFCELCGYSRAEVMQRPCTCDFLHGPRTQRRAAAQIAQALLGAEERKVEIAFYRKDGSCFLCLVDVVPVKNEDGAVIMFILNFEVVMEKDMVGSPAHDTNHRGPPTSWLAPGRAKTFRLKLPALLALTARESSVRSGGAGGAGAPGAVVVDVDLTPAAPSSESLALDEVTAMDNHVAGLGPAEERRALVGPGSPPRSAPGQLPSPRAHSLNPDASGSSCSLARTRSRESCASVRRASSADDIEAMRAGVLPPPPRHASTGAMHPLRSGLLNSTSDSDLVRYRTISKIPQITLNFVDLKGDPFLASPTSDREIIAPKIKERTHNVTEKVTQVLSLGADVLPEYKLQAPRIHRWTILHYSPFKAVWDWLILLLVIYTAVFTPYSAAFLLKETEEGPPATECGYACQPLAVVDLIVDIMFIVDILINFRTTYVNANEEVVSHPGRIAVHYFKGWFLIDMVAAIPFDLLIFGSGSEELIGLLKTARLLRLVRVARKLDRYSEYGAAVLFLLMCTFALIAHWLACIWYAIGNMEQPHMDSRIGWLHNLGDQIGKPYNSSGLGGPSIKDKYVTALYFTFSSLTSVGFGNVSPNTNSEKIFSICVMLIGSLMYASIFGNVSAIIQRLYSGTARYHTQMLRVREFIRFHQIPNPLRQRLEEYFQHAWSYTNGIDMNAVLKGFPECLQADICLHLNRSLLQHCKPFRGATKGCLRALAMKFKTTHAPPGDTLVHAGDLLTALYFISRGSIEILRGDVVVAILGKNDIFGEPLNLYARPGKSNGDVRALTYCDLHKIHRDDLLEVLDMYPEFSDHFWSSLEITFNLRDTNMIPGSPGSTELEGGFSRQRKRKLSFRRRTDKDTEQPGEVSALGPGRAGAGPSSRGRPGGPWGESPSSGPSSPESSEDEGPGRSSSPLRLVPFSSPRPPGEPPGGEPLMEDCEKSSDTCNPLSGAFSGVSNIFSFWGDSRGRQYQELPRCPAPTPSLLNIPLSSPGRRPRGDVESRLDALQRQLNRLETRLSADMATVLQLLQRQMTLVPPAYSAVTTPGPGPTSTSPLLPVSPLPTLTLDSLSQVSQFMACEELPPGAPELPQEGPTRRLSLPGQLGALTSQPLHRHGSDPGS
T2 sequence (Q9UGN5 whole entry): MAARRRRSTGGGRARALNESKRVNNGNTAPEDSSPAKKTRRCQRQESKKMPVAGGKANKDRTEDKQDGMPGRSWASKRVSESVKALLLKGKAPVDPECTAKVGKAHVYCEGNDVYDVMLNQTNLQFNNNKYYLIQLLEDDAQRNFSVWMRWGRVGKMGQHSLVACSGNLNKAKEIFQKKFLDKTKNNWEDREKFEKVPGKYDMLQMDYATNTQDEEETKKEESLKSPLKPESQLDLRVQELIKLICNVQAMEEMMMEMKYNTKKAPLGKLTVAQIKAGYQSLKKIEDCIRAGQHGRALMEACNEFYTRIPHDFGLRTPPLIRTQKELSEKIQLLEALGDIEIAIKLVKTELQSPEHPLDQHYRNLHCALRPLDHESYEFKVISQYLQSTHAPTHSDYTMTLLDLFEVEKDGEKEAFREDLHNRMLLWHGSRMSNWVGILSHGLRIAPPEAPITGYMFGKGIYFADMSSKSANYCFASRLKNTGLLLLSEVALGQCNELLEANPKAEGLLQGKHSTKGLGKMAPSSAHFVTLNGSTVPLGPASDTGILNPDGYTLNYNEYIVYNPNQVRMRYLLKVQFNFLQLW

Turning to `CCc1nc2ccc(CN3CCN(c4ccc(C(=O)NC)nc4)CC3)c(Cl)c2[nH]c1=O` [Example 10, 5-[4-[(5-chloro-2-ethyl-3-oxo-4H-quinoxalin-6-yl)methyl]piperazin-1-yl]-N-methyl-pyridine-2-carboxamide], the pIC50 on PARP6 is less than 4.00; at PARP2, less than 4.00; on hERG, less than 4.40; on PARP5a, less than 4.00; in the experiment with BRCA2 (−/−) DLD1 cells, less than 4.52; on PARP3, less than 4.00. In the experiment with DLD1 cells, the pIC50 is less than 4.52.
Regarding `CNC(=O)c1ccc(N2CCN(Cc3ccc4nc(C)c(=O)[nH]c4c3F)CC2)cn1` [Example 32, 5-[4-[(5-fluoro-2-methyl-3-oxo-4H-quinoxalin-6-yl)methyl]piperazin-1-yl]-N-methyl-pyridine-2-carboxamide], the values for the pIC50 against hERG, in the experiment on BRCA2 (−/−) DLD1 cells and with DLD1 cells were less than 4.40, 5.97 and 4.64, respectively.
Taken in the same sequence, the figures for `CNC(=O)c1ccc(N2CCN(Cc3ccc4nc(C)c(=O)[nH]c4c3C)CC2)c(Cl)n1` [Example 3, 6-chloro-5-[4-[(2,5-dimethyl-3-oxo-4H-quinoxalin-6-yl)methyl]piperazin-1-yl]-N-methyl-pyridine-2-carboxamide] were less than 4.40, 8.10 and 4.60.
On to `CNC(=O)c1ccc(N2CCN(Cc3ccc4nc(C)c(=O)[nH]c4c3Cl)CC2)c(C)n1` [Example 18, 5-[4-[(5-chloro-2-methyl-3-oxo-4H-quinoxalin-6-yl)methyl]piperazin-1-yl]-N,6-dimethyl-pyridine-2-carboxamide], for which the pIC50 is less than 4.00 at PARP6; less than 4.00 on PARP2; less than 4.00 at PARP5a; 5.36 in the experiment with BRCA2 (−/−) DLD1 cells; less than 4.00 on PARP3; 4.68 with DLD1 cells.
`CNC(=O)c1ccc(N2CCN(Cc3ccc4nc(C)c(=O)[nH]c4c3F)CC2)c(Cl)n1` [Example 30, 6-chloro-5-[4-[(5-fluoro-2-methyl-3-oxo-4H-quinoxalin-6-yl)methyl]piperazin-1-yl]-N-methyl-pyridine-2-carboxamide]: the pIC50 at hERG is less than 4.40; with BRCA2 (−/−) DLD1 cells, 8.52; in the experiment on DLD1 cells, less than 4.52.
Regarding `Cc1nc(C(N)=O)ccc1N1CCN(Cc2ccc3nc(C)c(=O)[nH]c3c2C)CC1` [Example 7, 5-[4-[(2,5-dimethyl-3-oxo-4H-quinoxalin-6-yl)methyl]piperazin-1-yl]-6-methyl-pyridine-2-carboxamide], the pIC50 was 5.07 in the experiment on BRCA2 (−/−) DLD1 cells and less than 4.52 in the experiment with DLD1 cells.
Turning to `CNC(=O)c1ccc(N2CCN(Cc3ccc4nc(C)c(=O)[nH]c4c3F)CC2)c(C)n1` [Example 31, 5-[4-[(5-fluoro-2-methyl-3-oxo-4H-quinoxalin-6-yl)methyl]piperazin-1-yl]-N,6-dimethyl-pyridine-2-carboxamide], the pIC50 is less than 4.40 against hERG and less than 4.52 in the experiment on DLD1 cells.
As for `CCc1nc2ccc(CN3CCN(c4ccc(C(=O)NC)nc4)CC3)c(F)c2[nH]c1=O` [Example 29, 5-[4-[(2-ethyl-5-fluoro-3-oxo-4H-quinoxalin-6-yl)methyl]piperazin-1-yl]-N-methyl-pyridine-2-carboxamide], the pIC50 at hERG is less than 4.40; in the experiment with BRCA2 (−/−) DLD1 cells, 8.30; in the experiment with DLD1 cells, less than 5.00.
On the same counts, the results for `CCc1nc2ccc(CN3CCN(c4ccc(C(=O)NC)nc4C(F)F)CC3)c(F)c2[nH]c1=O` [Example 24, 6-(difluoromethyl)-5-[4-[(2-ethyl-5-fluoro-3-oxo-4H-quinoxalin-6-yl)methyl]piperazin-1-yl]-N-methyl-pyridine-2-carboxamide] are less than 4.44, 8.52 and less than 4.52.
In the case of `CNC(=O)c1ccc(N2CCN(Cc3ccc4ncc(=O)[nH]c4c3F)CC2)c(C)n1` [Example 35, 5-[4-[(5-fluoro-3-oxo-4H-quinoxalin-6-yl)methyl]piperazin-1-yl]-N,6-dimethyl-pyridine-2-carboxamide], the pIC50 in the experiment on BRCA2 (−/−) DLD1 cells was 4.99; in the experiment on DLD1 cells, less than 4.52.
For the molecule `CCc1nc2ccc(CN3CCN(c4ccc(C(=O)NC)nc4F)CC3)c(F)c2[nH]c1=O` [Example 27, 5-[4-[(2-ethyl-5-fluoro-3-oxo-4H-quinoxalin-6-yl)methyl]piperazin-1-yl]-6-fluoro-N-methyl-pyridine-2-carboxamide], the pIC50 at hERG is less than 4.40; in the experiment with BRCA2 (−/−) DLD1 cells, 8.22; in the experiment with DLD1 cells, 5.20.
In the case of `CNC(=O)c1ccc(N2CCN(Cc3ccc4nc(C)c(=O)[nH]c4c3C)CC2)c(F)n1` [Example 1, 5-[4-[(2,5-dimethyl-3-oxo-4H-quinoxalin-6-yl)methyl]piperazin-1-yl]-6-fluoro-N-methyl-pyridine-2-carboxamide], the pIC50 against hERG was less than 4.40; in the experiment on BRCA2 (−/−) DLD1 cells it was 7.85; with DLD1 cells it was 4.62.
`CNC(=O)c1ccc(N2CCN(Cc3ccc4nc(C(F)(F)F)c(=O)[nH]c4c3F)CC2)c(F)n1` [Example 48, 6-fluoro-5-[4-[[5-fluoro-3-oxo-2-(trifluoromethyl)-4H-quinoxalin-6-yl]methyl]piperazin-1-yl]-N-methyl-pyridine-2-carboxamide]: the pIC50 at hERG was less than 4.40; with BRCA2 (−/−) DLD1 cells it was 7.74; in the experiment with DLD1 cells, 4.57.
In the case of `CNC(=O)c1ccc(N2CCN(Cc3ccc4nc(C)c(=O)[nH]c4c3C)CC2)c(C)n1` [Example 4, 5-[4-[(2,5-dimethyl-3-oxo-4H-quinoxalin-6-yl)methyl]piperazin-1-yl]-N,6-dimethyl-pyridine-2-carboxamide], the pIC50 was less than 4.40 at hERG, 7.09 in the experiment with BRCA2 (−/−) DLD1 cells and less than 4.85 with DLD1 cells.
On to `CNC(=O)c1ccc(N2CCN(Cc3ccc4nc(C)c(=O)[nH]c4c3F)CC2)c(F)n1` [Example 20, 6-fluoro-5-[4-[(5-fluoro-2-methyl-3-oxo-4H-quinoxalin-6-yl)methyl]piperazin-1-yl]-N-methyl-pyridine-2-carboxamide], for which the pIC50 on PARP6 is less than 4.00; at hERG, less than 4.40; at PARP5a it was less than 4.00; on PARP3, less than 4.00.
`CCc1nc2ccc(CN3CCN(c4ccc(C(=O)NC)nc4C)CC3)c(F)c2[nH]c1=O` [Example 23, 5-[4-[(2-ethyl-5-fluoro-3-oxo-4H-quinoxalin-6-yl)methyl]piperazin-1-yl]-N,6-dimethyl-pyridine-2-carboxamide]: the pIC50 on hERG was less than 4.40; with BRCA2 (−/−) DLD1 cells, 8.52; in the experiment with DLD1 cells, less than 4.52.
